Measured values reported in PMC8851638 (ACS Omega, 2022).

How the values were obtained:
Assay in all cases: Agar well-diffusion antimicrobial sensitivity assay
S. aureus (MDR00231) = format: cell-based, Staphylococcus aureus; details: S. aureus; 100 mg/mL in DMSO, 50 μL per well; ± SD
B. subtilis (MDR00423) = format: cell-based; details: 100 mg/mL in DMSO, 50 μL per well, ± SD
[1] = system: S. epidermidis (MDR00223); format: cell-based, Staphylococcus epidermidis; details: S. epidermidis; 100 mg/mL in DMSO, 50 μL per well; ± SD
[2] = system: C. albicans100 (MDR00100); format: cell-based, Candida albicans; details: C. albicans100; 100 mg/mL in DMSO, 50 μL per well; ± SD
[3] = system: C. albicans200 (MDR00200); format: cell-based, Candida albicans; details: C. albicans200; 100 mg/mL in DMSO, 50 μL per well; ± SD
A. baumannii (MDR00521) = format: cell-based; details: 100 mg/mL in DMSO, 50 μL per well, ± SD
E. coli (MDR00501) = format: cell-based; details: E. coli; 100 mg/mL in DMSO, 50 μL per well; ± SD
K. pneumoniae (MDR00244) = format: cell-based; details: 100 mg/mL in DMSO, 50 μL per well, ± SD

Measured: Inhibition Zone (IZ)

Cc1c(NN=C2SC3=C(C#N)C(c4ccccc4)C(C#N)=C(N)N3C2=O)c(=O)n(-c2ccccc2)n1C (stereo not shown) [Compound 16a, 5-Amino-2-(2-(1,5-dimethyl-3-oxo-2-phenyl-2,3-dihydro-1H-pyrazol-4-yl)hydrazono)-3-oxo-7-phenyl-2,3-dihydro-7H-thiazolo[3,2-a]pyridine-6,8-dicarbonitrile]
-ve: all assays above

Cc1c(NN=C2SC3=C(C#N)C(c4ccc(Cl)cc4)C(C#N)=C(N)N3C2=O)c(=O)n(-c2ccccc2)n1C (stereo not shown) [Compound 16b, 5-Amino-7-(4-chlorophenyl)-2-(2-(1,5-dimethyl-3-oxo-2-phenyl-2,3-dihydro-1H-pyrazol-4-yl)hydrazono)-3-oxo-2,3-dihydro-7H-thiazolo[3,2-a]pyridine-6,8-dicarbonitrile]
-ve: all assays above
